Patent US6518243B1, “Desleucyl glycopeptide antibiotics and methods of making same” (Trustees of Princeton University, priority 1999, dated 2003)

Tests used:
S. aureus (ATCC 29213) = assay: Zone of inhibition screen, 96 well agar array format; format: cell-based; design: scale not given here; conditions: zone of inhibition relative to 1 mg/ml stock solution of p-chlorobiphenylvancomycin
Description: (§1) The antibacterial activity of each of the compounds against the bacterial strains E. faceium (ATCC 49624), S. epidermidis (ATCC 12228), S. aureus (ATCC 29213), E. faecalis (CL 4877) and E. faecalis (ATCC 292121) was tested. Each of the compounds was screened in a 96 will agar array format.

E. faecalis (CL 4877) = assay: as above; format: cell-based; design: scale not given here
Description: as §1

[1] = zone of inhibition relative to 1 mg/ml stock solution of p-chlorobiphenylvancomycin

SMILES | zone score, E. faecalis CL 4877 (E. faecalis (CL 4877); [1]) | further results
CC1OC(OC2C(Oc3c4cc5cc3Oc3ccc(cc3Cl)C(O)C3NC(=O)C(NC(=O)C5NC(=O)C(CC(N)=O)NC(=O)C(NC(=O)c5[nH]c(=O)[nH]c(=O)c5N)C(O)c5ccc(c(Cl)c5)O4)c4ccc(O)c(c4)-c4c(O)cc(O)cc4C(C(=O)O)NC3=O)OC(CO)C(O)C2O)CC(C)(NCc2ccc(-c3ccc(Cl)cc3)cc2)C1O (stereo not shown) [Compound 109] | – | zone score, S. aureus ATCC 29213 (S. aureus (ATCC 29213)): 2
CC1OC(OC2C(Oc3c4cc5cc3Oc3ccc(cc3Cl)[C@@H](O)[C@@H](NC(=O)CC3NC(=O)NC3=O)C(=O)N[C@@H](CC(N)=O)C(=O)N[C@H]5C(=O)NC3C(=O)N[C@H](C(=O)N[C@@H](C(=O)O)c5cc(O)cc(O)c5-c5cc3ccc5O)[C@H](O)c3ccc(c(Cl)c3)O4)OC(CO)C(O)C2O)CC(C)(NCc2ccc(-c3ccc(Cl)cc3)cc2)C1O (stereo partly shown) [Compound 163] | – | zone score, S. aureus ATCC 29213 (S. aureus (ATCC 29213)): 2
C=CCOC(=O)NCC(N)C(=O)NC1C(=O)NC(CC(N)=O)C(=O)NC2C(=O)NC3C(=O)NC(C(=O)NC(C(=O)O)c4cc(O)cc(O)c4-c4cc3ccc4O)C(O)c3ccc(c(Cl)c3)Oc3cc2cc(c3OC2OC(CO)C(O)C(O)C2OC2CC(C)(NCc3ccc(-c4ccc(Cl)cc4)cc3)C(O)C(C)O2)Oc2ccc(cc2Cl)C1O (stereo not shown) [Compound 92] | 2 | –
C=C(NC(C)=O)C(=O)NC1C(=O)NC(CC(N)=O)C(=O)NC2C(=O)NC3C(=O)NC(C(=O)NC(C(=O)O)c4cc(O)cc(O)c4-c4cc3ccc4O)C(O)c3ccc(c(Cl)c3)Oc3cc2cc(c3OC2OC(CO)C(O)C(O)C2OC2CC(C)(NCc3ccc(-c4ccc(Cl)cc4)cc3)C(O)C(C)O2)Oc2ccc(cc2Cl)C1O (stereo not shown) [Compound 102] | 2 | –
CC(=O)NCSC(C)(C)C(N)C(=O)NC1C(=O)NC(CC(N)=O)C(=O)NC2C(=O)NC3C(=O)NC(C(=O)NC(C(=O)O)c4cc(O)cc(O)c4-c4cc3ccc4O)C(O)c3ccc(c(Cl)c3)Oc3cc2cc(c3OC2OC(CO)C(O)C(O)C2OC2CC(C)(NCc3ccc(-c4ccc(Cl)cc4)cc3)C(O)C(C)O2)Oc2ccc(cc2Cl)C1O (stereo not shown) [Compound 46] | 2 | –
CC(=O)NCC(=O)N[C@H]1C(=O)N[C@@H](CC(N)=O)C(=O)N[C@H]2C(=O)NC3C(=O)N[C@H](C(=O)N[C@@H](C(=O)O)c4cc(O)cc(O)c4-c4cc3ccc4O)[C@H](O)c3ccc(c(Cl)c3)Oc3cc2cc(c3OC2OC(CO)C(O)C(O)C2OC2CC(C)(NCc3ccc(-c4ccc(Cl)cc4)cc3)C(O)C(C)O2)Oc2ccc(cc2Cl)[C@H]1O (stereo partly shown) [Compound 179] | 2 | –
CCSCC(=O)NC1C(=O)NC(CC(N)=O)C(=O)NC2C(=O)NC3C(=O)NC(C(=O)NC(C(=O)O)c4cc(O)cc(O)c4-c4cc3ccc4O)C(O)c3ccc(c(Cl)c3)Oc3cc2cc(c3OC2OC(CO)C(O)C(O)C2OC2CC(C)(NCc3ccc(-c4ccc(Cl)cc4)cc3)C(O)C(C)O2)Oc2ccc(cc2Cl)C1O (stereo not shown) [Compound 225] | – | zone score, E. faecalis CL 4877 (E. faecalis (CL 4877); zone of inhibition relative to 1 mg/ml p-chlorobiphenylvancomycin): 2
CC(=O)NCCCCC(NC(C)=O)C(=O)NC1C(=O)NC(CC(N)=O)C(=O)NC2C(=O)NC3C(=O)NC(C(=O)NC(C(=O)O)c4cc(O)cc(O)c4-c4cc3ccc4O)C(O)c3ccc(c(Cl)c3)Oc3cc2cc(c3OC2OC(CO)C(O)C(O)C2OC2CC(C)(NCc3ccc(-c4ccc(Cl)cc4)cc3)C(O)C(C)O2)Oc2ccc(cc2Cl)C1O (mixture of isomers) [Compound 114] | 2 | –
CC1OC(OC2C(Oc3c4cc5cc3Oc3ccc(cc3Cl)C(O)C3NC(=O)C(NC(=O)C5NC(=O)C(CC(N)=O)NC(=O)C(NC(=O)C(N)Cc5c[nH]cn5)C(O)c5ccc(c(Cl)c5)O4)c4ccc(O)c(c4)-c4c(O)cc(O)cc4C(C(=O)O)NC3=O)OC(CO)C(O)C2O)CC(C)(NCc2ccc(-c3ccc(Cl)cc3)cc2)C1O (stereo not shown) [Compound 71] | 2 | –
C[C@H]1O[C@H](O[C@H]2[C@H](Oc3c4cc5cc3Oc3ccc(cc3Cl)[C@@H](O)[C@@H](NC(=O)[C@H](N)CSC(c3ccccc3)(c3ccccc3)c3ccccc3)C(=O)N[C@@H](CC(N)=O)C(=O)N[C@H]5C(=O)N[C@H]3C(=O)N[C@H](C(=O)N[C@@H](C(=O)O)c5cc(O)cc(O)c5-c5cc3ccc5O)[C@H](O)c3ccc(c(Cl)c3)O4)O[C@H](CO)[C@@H](O)[C@@H]2O)C[C@@](C)(NCc2ccc(-c3ccc(Cl)cc3)cc2)[C@H]1O [Compound 14] | 2 | –
